According to patent US10538555B2, “Macrocyclic inhibitors of the PD-1/PD-L1 and CD80(B7-1)/PD-L1 protein/protein interactions” (BRISTOL-MYERS SQUIBB COMPANY, priority 2014, dated 2020):
Where two headings read alike, the source gives them in different places. *1 amine or outer side, *2 acyl side, *3 side chain or, on linkers, in order; H or OH if unused. Where a SMILES comes first, the peptide text is derived from it. Bridges are numbered along the chain shown (N, C = ends). [ ]: non-standard residue; d: D form. Phe(3,4,5-F3) = N[C@@H](Cc1cc(F)c(F)c(F)c1)C(=O)O; d(cisHyp) = O=C(O)[C@H]1C[C@@H](O)CN1; NMeF = CN[C@@H](Cc1ccccc1)C(=O)O; X1 = O=C([C@H]1COCCN1[*:1])[*:2]; NMeE = CN[C@@H](CCC(=O)O)C(=O)O; NMeNle = CCCC[C@H](NC)C(=O)O; hSer = N[C@@H](CCO)C(=O)O; Orn = NCCC[C@H](N)C(=O)O

Target: T1, Human PD-L1/PD-1 (Homo sapiens, UniProt Q9NZQ7)
T1 construct: TVMV protease cleavage site (C); made in house; host or cells: HEK293T cells
T1 sequence (Q9NZQ7 with tags, fused parts or gaps): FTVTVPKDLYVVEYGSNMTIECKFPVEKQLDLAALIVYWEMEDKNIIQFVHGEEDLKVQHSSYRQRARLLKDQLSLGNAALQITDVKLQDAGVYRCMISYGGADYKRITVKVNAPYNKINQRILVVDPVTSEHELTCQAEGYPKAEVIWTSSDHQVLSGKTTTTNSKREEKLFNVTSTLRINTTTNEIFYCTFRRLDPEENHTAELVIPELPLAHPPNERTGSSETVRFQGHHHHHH
Assay: HTRF Human PD-L1/PD-1 binding assay (PD-1-Ig/PD-L1-His)
Conditions: PD-L1-His 10 nM, PD-1-Ig 20 nM
Method in brief: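 Competition of macrocyclic peptides for PD-1/PD-L1 binding measured by HTRF in dPBS containing 0.1% BSA and 0.05% Tween-20. Compound and PD-L1-His (10 nM final) incubated 15 min before PD-1-Ig (20 nM final) and a further 15 min.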

[1] = class symbol, read-out: HTRF Human PD-L1/PD-1 Binding Assay IC50 Range

Row | Structure (SMILES) | IC50 [1] [nM] | IC50 (read-out: HTRF Human PD-L1/PD-1 Binding Assay IC50) [nM]
1 | CCCC[C@H]1C(=O)N2C[C@H](O)C[C@@H]2C(=O)N[C@@H](CC(=O)O)C(=O)N[C@@H](C(C)C)C(=O)N(C)[C@@H](Cc2ccccc2)C(=O)N[C@@H](Cc2ccc(O)cc2)C(=O)N2CCOC[C@@H]2C(=O)N[C@@H](Cc2c[nH]c3ccccc23)C(=O)N[C@@H](Cc2ccc(O)cc2)C(=O)N[C@@H](CC(C)C)C(=O)N[C@H](C(=O)NCC(N)=O)CSCC(=O)N[C@@H](Cc2cc(F)c(F)c(F)c2)C(=O)N(C)[C@@H](CCC(=O)O)C(=O)N1C [Example 10177] ({CH2CO}-[Phe(3,4,5-F3)][NMeE][NMeNle][d(cisHyp)]DV[NMeF]Y[X1]WYLCG-NH2; thioether N-13) | 10 to 99.9 | 
2 | CCCC[C@H]1C(=O)N2C[C@H](O)C[C@@H]2C(=O)N[C@@H](CC(=O)O)C(=O)N[C@@H](C(C)C)C(=O)N(C)[C@@H](Cc2ccccc2)C(=O)N[C@@H](CCC(=O)O)C(=O)N2CCOC[C@@H]2C(=O)N[C@@H](Cc2c[nH]c3ccccc23)C(=O)N[C@@H](Cc2ccc(O)cc2)C(=O)N[C@@H](CCOC)C(=O)N[C@H](C(=O)NCC(N)=O)CSCC(=O)N[C@@H](Cc2cc(F)c(F)c(F)c2)C(=O)N(C)[C@@H](Cc2ccccc2)C(=O)N1C [Example 10178] ({CH2CO}-[Phe(3,4,5-F3)][NMeF][NMeNle][d(cisHyp)]DV[NMeF]E[X1]WY[hSer](Me)CG-NH2; thioether N-13) | 1 to 9.9 | 
3 | CCCC[C@H]1C(=O)N2C[C@H](O)C[C@@H]2C(=O)N[C@@H](CC(=O)O)C(=O)N[C@@H](C(C)C)C(=O)N(C)[C@@H](Cc2ccccc2)C(=O)N[C@@H](Cc2ccc(O)cc2)C(=O)N2CCOC[C@@H]2C(=O)N[C@@H](Cc2c[nH]c3ccccc23)C(=O)N[C@@H](Cc2ccc(OC)cc2)C(=O)N[C@@H](CCOC)C(=O)N[C@H](C(=O)NCC(N)=O)CSCC(=O)N[C@@H](Cc2cc(F)c(F)c(F)c2)C(=O)N(C)[C@@H](Cc2ccccc2)C(=O)N1C [Example 10179] ({CH2CO}-[Phe(3,4,5-F3)][NMeF][NMeNle][d(cisHyp)]DV[NMeF]Y[X1]WY(Me)[hSer](Me)CG-NH2; thioether N-13) | 10 to 99.9 | 
4 | CCCC[C@H]1C(=O)N2C[C@H](O)C[C@@H]2C(=O)N[C@@H](CC(=O)O)C(=O)N[C@@H](C(C)C)C(=O)N(C)[C@@H](Cc2ccccc2)C(=O)N[C@@H](Cc2ccc(OC)cc2)C(=O)N2CCOC[C@@H]2C(=O)N[C@@H](Cc2c[nH]c3ccccc23)C(=O)N[C@@H](Cc2ccc(O)cc2)C(=O)N[C@@H](CCOC)C(=O)N[C@H](C(=O)NCC(N)=O)CSCC(=O)N[C@@H](Cc2cc(F)c(F)c(F)c2)C(=O)N(C)[C@@H](Cc2ccccc2)C(=O)N1C [Example 10180] ({CH2CO}-[Phe(3,4,5-F3)][NMeF][NMeNle][d(cisHyp)]DV[NMeF]Y(Me)[X1]WY[hSer](Me)CG-NH2; thioether N-13) | 10 to 99.9 | 
5 | CCCC[C@H]1C(=O)N2CCC[C@@H]2C(=O)N[C@@H](CC(=O)O)C(=O)N[C@@H](C(C)C)C(=O)N(C)[C@@H](Cc2ccccc2)C(=O)N[C@@H](Cc2ccc(O)cc2)C(=O)N2C[C@H](O)C[C@@H]2C(=O)N[C@@H](Cc2c[nH]c3ccccc23)C(=O)N[C@@H](Cc2ccc(O)cc2)C(=O)N[C@@H](CCOC)C(=O)N[C@H](C(=O)NCC(N)=O)CSCC(=O)N[C@@H](Cc2cc(F)c(F)c(F)c2)C(=O)N(C)[C@@H](Cc2ccccc2)C(=O)N1C [Example 10181] ({CH2CO}-[Phe(3,4,5-F3)][NMeF][NMeNle][dP]DV[NMeF]Y[d(cisHyp)]WY[hSer](Me)CG-NH2; thioether N-13) | 1 to 9.9 | 
6 | CCCC[C@H]1C(=O)N2CCC[C@@H]2C(=O)N[C@@H](CC(=O)O)C(=O)N[C@@H](C(C)C)C(=O)N(C)[C@@H](Cc2ccccc2)C(=O)N[C@@H](CCCN)C(=O)N2C[C@H](O)C[C@@H]2C(=O)N[C@@H](Cc2c[nH]c3ccccc23)C(=O)N[C@@H](Cc2ccc(O)cc2)C(=O)N[C@@H](CCOC)C(=O)N[C@H](C(=O)NCC(N)=O)CSCC(=O)N[C@@H](Cc2cc(F)c(F)c(F)c2)C(=O)N(C)[C@@H](Cc2ccccc2)C(=O)N1C [Example 10182] ({CH2CO}-[Phe(3,4,5-F3)][NMeF][NMeNle][dP]DV[NMeF][Orn][d(cisHyp)]WY[hSer](Me)CG-NH2; thioether N-13) | 1 to 9.9 | 
7 | CCCC[C@H]1C(=O)N2CCOC[C@@H]2C(=O)N[C@@H](CC(=O)O)C(=O)N[C@@H](C(C)C)C(=O)N(C)[C@@H](Cc2ccccc2)C(=O)N[C@@H](Cc2ccc(O)cc2)C(=O)N2C[C@H](O)C[C@@H]2C(=O)N[C@@H](Cc2c[nH]c3ccccc23)C(=O)N[C@@H](Cc2ccc(O)cc2)C(=O)N[C@@H](CCOC)C(=O)N[C@H](C(=O)NCC(N)=O)CSCC(=O)N[C@@H](Cc2cc(F)c(F)c(F)c2)C(=O)N(C)[C@@H](Cc2ccccc2)C(=O)N1C [Example 10183] ({CH2CO}-[Phe(3,4,5-F3)][NMeF][NMeNle][X1]DV[NMeF]Y[d(cisHyp)]WY[hSer](Me)CG-NH2; thioether N-13) | 10 to 99.9 | 
8 | CCCC[C@H]1C(=O)N2CCOC[C@@H]2C(=O)N[C@@H](CC(=O)O)C(=O)N[C@@H](C(C)C)C(=O)N(C)[C@@H](Cc2ccccc2)C(=O)N[C@@H](CCCN)C(=O)N2C[C@H](O)C[C@@H]2C(=O)N[C@@H](Cc2c[nH]c3ccccc23)C(=O)N[C@@H](Cc2ccc(O)cc2)C(=O)N[C@@H](CCOC)C(=O)N[C@H](C(=O)NCC(N)=O)CSCC(=O)N[C@@H](Cc2cc(F)c(F)c(F)c2)C(=O)N(C)[C@@H](Cc2ccccc2)C(=O)N1C [Example 10184] ({CH2CO}-[Phe(3,4,5-F3)][NMeF][NMeNle][X1]DV[NMeF][Orn][d(cisHyp)]WY[hSer](Me)CG-NH2; thioether N-13) | 10 to 99.9 | 
9 | CCCC[C@H]1C(=O)N2CCOC[C@@H]2C(=O)N[C@@H](CC(=O)O)C(=O)N[C@@H](C(C)C)C(=O)N(C)[C@@H](Cc2ccccc2)C(=O)N[C@@H](Cc2ccc(O)cc2)C(=O)N2CCC[C@@H]2C(=O)N[C@@H](Cc2c[nH]c3ccccc23)C(=O)N[C@@H](Cc2ccc(O)cc2)C(=O)N[C@@H](CCOC)C(=O)N[C@H](C(=O)NCC(N)=O)CSCC(=O)N[C@@H](Cc2cc(F)c(F)c(F)c2)C(=O)N(C)[C@@H](Cc2ccccc2)C(=O)N1C [Example 10185] ({CH2CO}-[Phe(3,4,5-F3)][NMeF][NMeNle][X1]DV[NMeF]Y[dP]WY[hSer](Me)CG-NH2; thioether N-13) | 1 to 9.9 | 
10 | CCCC[C@H]1C(=O)N2C[C@H](O)C[C@@H]2C(=O)N[C@@H](CC(=O)O)C(=O)N[C@@H](C(C)C)C(=O)N(C)[C@@H](Cc2ccccc2)C(=O)N[C@@H](Cc2ccc(O)cc2)C(=O)N2CCC[C@@H]2C(=O)N[C@@H](Cc2c[nH]c3ccccc23)C(=O)N[C@@H](Cc2ccc(O)cc2)C(=O)N[C@@H](CCOC)C(=O)N[C@H](C(=O)NCC(N)=O)CSCC(=O)N[C@@H](Cc2cc(F)c(F)c(F)c2)C(=O)N(C)[C@@H](Cc2ccccc2)C(=O)N1C [Example 10186] ({CH2CO}-[Phe(3,4,5-F3)][NMeF][NMeNle][d(cisHyp)]DV[NMeF]Y[dP]WY[hSer](Me)CG-NH2; thioether N-13) | 10 to 99.9 | 
11 | CCCC[C@H]1C(=O)N2CCC[C@@H]2C(=O)N[C@@H](CC(=O)O)C(=O)N[C@@H](C(C)C)C(=O)N(C)[C@@H](Cc2ccccc2)C(=O)N[C@@H](Cc2ccc(O)cc2)C(=O)N2CCOC[C@@H]2C(=O)N[C@@H](Cc2c[nH]c3ccccc23)C(=O)N[C@@H](Cc2ccc(O)cc2)C(=O)N[C@@H](CCOC)C(=O)N[C@H](C(=O)NCC(N)=O)CSCC(=O)N[C@@H](Cc2cc(F)c(F)c(F)c2)C(=O)N(C)[C@@H](Cc2ccccc2)C(=O)N1C [Example 10187] ({CH2CO}-[Phe(3,4,5-F3)][NMeF][NMeNle][dP]DV[NMeF]Y[X1]WY[hSer](Me)CG-NH2; thioether N-13) | 1 to 9.9 | 
12 | CCCC[C@H]1C(=O)N2CCC[C@@H]2C(=O)N[C@@H](CC(=O)O)C(=O)N[C@@H](C(C)C)C(=O)N(C)[C@@H](Cc2ccccc2)C(=O)N[C@@H](CCC(=O)O)C(=O)N2C[C@H](O)C[C@@H]2C(=O)N[C@@H](Cc2c[nH]c3ccccc23)C(=O)N[C@@H](Cc2ccc(O)cc2)C(=O)N[C@@H](CCOC)C(=O)N[C@H](C(=O)NCC(N)=O)CSCC(=O)N[C@@H](Cc2cc(F)c(F)c(F)c2)C(=O)N(C)[C@@H](Cc2ccccc2)C(=O)N1C [Example 10188] ({CH2CO}-[Phe(3,4,5-F3)][NMeF][NMeNle][dP]DV[NMeF]E[d(cisHyp)]WY[hSer](Me)CG-NH2; thioether N-13) | 1 to 9.9 | 
13 | CCCC[C@H]1C(=O)N2CCOC[C@@H]2C(=O)N[C@@H](CC(=O)O)C(=O)N[C@@H](C(C)C)C(=O)N(C)[C@@H](Cc2ccccc2)C(=O)N[C@@H](CCC(=O)O)C(=O)N2C[C@H](O)C[C@@H]2C(=O)N[C@@H](Cc2c[nH]c3ccccc23)C(=O)N[C@@H](Cc2ccc(O)cc2)C(=O)N[C@@H](CCOC)C(=O)N[C@H](C(=O)NCC(N)=O)CSCC(=O)N[C@@H](Cc2cc(F)c(F)c(F)c2)C(=O)N(C)[C@@H](Cc2ccccc2)C(=O)N1C [Example 10189] ({CH2CO}-[Phe(3,4,5-F3)][NMeF][NMeNle][X1]DV[NMeF]E[d(cisHyp)]WY[hSer](Me)CG-NH2; thioether N-13) | 10 to 99.9 | 
14 | CCCC[C@H]1C(=O)N2CCOC[C@@H]2C(=O)N[C@@H](CC(=O)O)C(=O)N[C@@H](C(C)C)C(=O)N(C)[C@@H](Cc2ccccc2)C(=O)N[C@@H](CCCN)C(=O)N2CCC[C@@H]2C(=O)N[C@@H](Cc2c[nH]c3ccccc23)C(=O)N[C@@H](Cc2ccc(O)cc2)C(=O)N[C@@H](CCOC)C(=O)N[C@H](C(=O)NCC(N)=O)CSCC(=O)N[C@@H](Cc2cc(F)c(F)c(F)c2)C(=O)N(C)[C@@H](Cc2ccccc2)C(=O)N1C [Example 10190] ({CH2CO}-[Phe(3,4,5-F3)][NMeF][NMeNle][X1]DV[NMeF][Orn][dP]WY[hSer](Me)CG-NH2; thioether N-13) |  | 8.2
